pKi: −log10 of the molar value. Where no end group is shown, it is not given here. [ ]: non-standard residue; d: D form. Ac5c = NC1(C(=O)O)CCCC1

Results on four molecules are retold here after patent US9074014B2 (Ipsen Pharma S.A.S., priority 2008, dated 2015).

Series [1] is described as follows: In vivo insulin secretion in normal rats. Details: species or system Sprague Dawley rats. To be noted: fasted male rats, iv compound with glucose 1 g/kg, samples to 20 minutes. On the procedure:
D. Determination of In Vivo Insulin Secretion in Normal Rats
Male Sprague Dawley rats with a body weight of approximately 275-300 g were used as experimental subjects. The day prior to the treatment, right atrial cannulae were implanted via the jugular vein under chlorohydrate. Each cannula was filled with 100 u/ml heparin saline and tied. The rats were fasted for approximately 18 hours prior to dosing with the compound or the vehicle (saline/0.25% BSA). The day of the experiment, aliquots of compound were thawed, brought to room temperature and vortexed thoroughly. A careful check was made for any sign of compound coming out of solution. 10 minutes prior to compound/glucose injection, a 500 μl blood sample was withdrawn and replaced with an equal volume of heparinized saline (10 u/ml). At time 0, a 500 μl blood sample was withdrawn through the cannula. Next, either the vehicle or the appropriate dose of the compound was injected into the cannula and pushed in with the glucose (1 g/kg) or vehicle solution. Finally, 500 μl of volume of heparinized saline (10 u/ml) was used to push in the remaining glucose through the cannula. Additional 500 μl blood samples were withdrawn at 2.5, 5, 10, and 20-minute post-glucose dosing; each immediately followed by a bolus, iv injection of 500 μl heparinized saline (10 u/ml) through the cannula. The plasma was collected from the blood samples by centrifugation, and stored at −20° C. until assay for insulin content. Numerical values of the total insulin secretion, which show the in vivo effects of the compounds of Examples 105, 106, 118, and 119, are summarized in Table 3.

The nature of series [2]: Rat plasma half-life assay. It is filed as in vitro ADME. Conditions: rat plasma, 37° C., LC-MS; read-out: Rat Plasma T½ (converted).
Series [3] in a line: Human plasma half-life assay. Conditions: human plasma, 37° C., LC-MS; read-out: Human Plasma T½ (converted). It is filed as in vitro ADME.
Series [4] addresses T1, human recombinant GIP receptor (Homo sapiens, UniProt P48546).
T1 construct: expressed in transfected cells; host or cells: CHO-K1 clonal cells (membranes)
T1 sequence (P48546 22-466): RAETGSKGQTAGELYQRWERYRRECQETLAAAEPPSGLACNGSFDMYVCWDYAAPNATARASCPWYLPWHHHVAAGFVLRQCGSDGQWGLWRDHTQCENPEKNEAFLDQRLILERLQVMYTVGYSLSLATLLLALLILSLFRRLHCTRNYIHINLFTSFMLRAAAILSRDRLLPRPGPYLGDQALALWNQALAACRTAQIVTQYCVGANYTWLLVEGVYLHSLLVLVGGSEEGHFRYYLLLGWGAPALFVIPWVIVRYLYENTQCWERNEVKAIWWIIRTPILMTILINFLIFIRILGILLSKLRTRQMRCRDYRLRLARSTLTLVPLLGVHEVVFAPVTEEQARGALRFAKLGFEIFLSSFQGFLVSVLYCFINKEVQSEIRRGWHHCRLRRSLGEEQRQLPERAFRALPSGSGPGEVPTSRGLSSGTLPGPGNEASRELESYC
Description: In vitro hGIP receptor binding assay ([125I]GIP displacement, CHO-K1 membranes). The source says: A. In Vitro hGIP Receptor Binding Assay

`CC[C@H](C)[C@H](NC(=O)[C@H](CCCCN)NC(=O)[C@H](CC(=O)O)NC(=O)[C@H](CCSC)NC(=O)[C@H](C)NC(=O)[C@@H](NC(=O)C1(NC(=O)[C@H](Cc2ccc(O)cc2)NC(=O)[C@H](CC(=O)O)NC(=O)[C@H](CO)NC(=O)[C@@H](NC(=O)[C@H](Cc2ccccc2)NC(=O)[C@@H](NC(=O)CNC(=O)[C@H](CCC(=O)O)NC(=O)[C@@H](C)NC(=O)[C@@H](N)Cc2ccc(O)cc2)[C@@H](C)O)[C@@H](C)CC)CCCC1)[C@@H](C)CC)C(=O)N[C@@H](Cc1c[nH]cn1)C(=O)N[C@@H](CCC(N)=O)C(=O)N[C@@H](CCC(N)=O)C(=O)N[C@@H](CC(=O)O)C(=O)N[C@@H](Cc1ccccc1)C(=O)N[C@H](C(=O)N[C@@H](CC(N)=O)C(=O)N[C@@H](Cc1c[nH]c2ccccc12)C(=O)N[C@@H](CC(C)C)C(=O)N[C@@H](CC(C)C)C(=O)N[C@@H](C)C(=O)N[C@@H](CCC(N)=O)C(=O)N[C@@H](CCCCN)C(=O)NCC(=O)N[C@@H](CCCCN)C(=O)N[C@@H](CCCCN)C(=O)N[C@@H](CC(N)=O)C(=O)N[C@@H](CC(=O)O)C(=O)N[C@@H](Cc1c[nH]c2ccccc12)C(=O)N[C@@H](CCCCN)C(=O)N[C@@H](Cc1c[nH]cn1)C(=O)N[C@@H](CC(N)=O)C(=O)N[C@H](C(=O)N[C@H](C(=O)N[C@@H](CCC(N)=O)C(=O)N[C@@H](Cc1c[nH]cn1)C(=O)O)[C@@H](C)O)[C@@H](C)CC)C(C)C` [Example 105, (D-Ala^2, A5c^11, His^43)hGIP(1-43)-OH]: the “AUC (total insulin secretion)” value in series [1] is 114.70. In addition, the half-life at 0.1 mg/ml in series [2] is 6.9 h; in series [3], 19.1 h.
For “Y[dA]EGTFISDY[Ac5c]IAMDKIHQQDFVNWLLAQKGKKNDWKHNI[Ac5c]Q-OH [Example 106, (D-Ala^2, A5c^11, 41)hGIP(1-42)-OH]”, in that order: 161.73, 9.2 h and above 55 h.
For `CCCC[C@H](NC(=O)[C@H](C)NC(=O)[C@@H](NC(=O)C1(NC(=O)[C@H](Cc2ccc(O)cc2)NC(=O)[C@H](CC(=O)O)NC(=O)[C@H](CO)NC(=O)[C@@H](NC(=O)[C@H](Cc2ccccc2)NC(=O)[C@@H](NC(=O)CNC(=O)[C@H](CCC(=O)O)NC(=O)[C@@H](C)NC(=O)[C@@H](N)Cc2ccc(O)cc2)[C@@H](C)O)[C@@H](C)CC)CCCC1)[C@@H](C)CC)C(=O)N[C@@H](CC(=O)O)C(=O)N[C@@H](CCCCN)C(=O)N[C@H](C(=O)N[C@@H](Cc1c[nH]cn1)C(=O)N[C@@H](CCC(N)=O)C(=O)N[C@@H](CCC(N)=O)C(=O)N[C@@H](CC(=O)O)C(=O)N[C@@H](Cc1ccccc1)C(=O)N[C@H](C(=O)N[C@@H](CC(N)=O)C(=O)N[C@@H](Cc1c[nH]c2ccccc12)C(=O)N[C@@H](CC(C)C)C(=O)N[C@@H](CC(C)C)C(=O)N[C@@H](C)C(=O)N[C@@H](CCC(N)=O)C(=O)N[C@@H](CCCCN)C(=O)NCC(=O)N[C@@H](CCCCN)C(=O)N[C@@H](CCCCN)C(=O)N[C@@H](CC(N)=O)C(=O)N[C@@H](CC(=O)O)C(=O)N[C@@H](Cc1c[nH]c2ccccc12)C(=O)N[C@@H](CCCCN)C(=O)N[C@@H](Cc1c[nH]cn1)C(=O)N[C@@H](CC(N)=O)C(=O)N[C@H](C(=O)N[C@H](C(=O)N[C@@H](CCC(N)=O)C(=O)N[C@@H](Cc1c[nH]cn1)C(=O)O)[C@@H](C)O)[C@@H](C)CC)C(C)C)[C@@H](C)CC` [Example 119, (D-Ala^2, A5c^11, Nle^14, His^43)hGIP(1-43)-OH], in that order: 167.48, 15.4 h and 35.7 h.
`CCCC[C@H](NC(=O)[C@H](C)NC(=O)[C@@H](NC(=O)C1(NC(=O)[C@H](Cc2ccc(O)cc2)NC(=O)[C@H](CC(=O)O)NC(=O)[C@H](CO)NC(=O)[C@@H](NC(=O)[C@H](Cc2ccccc2)NC(=O)[C@@H](NC(=O)CNC(=O)[C@H](CCC(=O)O)NC(=O)CNC(=O)[C@@H](N)Cc2ccc(O)cc2)[C@@H](C)O)[C@@H](C)CC)CCCC1)[C@@H](C)CC)C(=O)N[C@@H](CC(=O)O)C(=O)N[C@@H](CCCCN)C(=O)N[C@H](C(=O)N[C@@H](Cc1c[nH]cn1)C(=O)N[C@@H](CCC(N)=O)C(=O)N[C@@H](CCC(N)=O)C(=O)N[C@@H](CC(=O)O)C(=O)N[C@@H](Cc1ccccc1)C(=O)N[C@H](C(=O)N[C@@H](CC(N)=O)C(=O)N[C@@H](Cc1c[nH]c2ccccc12)C(=O)N[C@@H](CC(C)C)C(=O)N[C@@H](CC(C)C)C(=O)N[C@@H](C)C(=O)N[C@@H](CCC(N)=O)C(=O)N[C@@H](CCCCN)C(=O)NCC(=O)N[C@@H](CCCCN)C(=O)N[C@@H](CCCCN)C(=O)N[C@@H](CC(N)=O)C(=O)N[C@@H](CC(=O)O)C(=O)N[C@@H](Cc1c[nH]c2ccccc12)C(=O)N[C@@H](CCCCN)C(=O)N[C@@H](Cc1c[nH]cn1)C(=O)N[C@@H](CC(N)=O)C(=O)N[C@H](C(=O)N[C@H](C(=O)N[C@@H](CCC(N)=O)C(=O)N[C@@H](Cc1c[nH]cn1)C(=O)O)[C@@H](C)O)[C@@H](C)CC)C(C)C)[C@@H](C)CC` [Example 118, (Gly^2, A5c^11, Nle^14, His^43)hGIP(1-43)-OH]: the pKi in series [4] was 9.06. Further, the “AUC (total insulin secretion)” value in series [1] is given as 88.22. Moreover, the results for the half-life at 0.1 mg/ml in series [2] and in series [3] were 11.2 h and above 42 h, respectively.

As usually defined, the pKi is −log10 of the Ki, conventionally taken in molar units.
